The values that follow are results of earlier work, collected in PubChem BioAssay AID1259409 (Chemical Carcinogenesis Research Information System (CCRIS), 2018).

This data set deals with rodent chemically induced tumor inhibition, incidence and multiplicity. The data set can be described thus: CCRIS tumor inhibitor studies. As to conditions: Promoter: NONE USED.

In the case of `N#CSCc1ccccc1`, the “tumour outcome (control, treated, inhibition, significance)” value (Carcinogen: 7,12-DIMETHYLBENZ[A]ANTHRACENE, 57-97-6, Dose [Inhibitor]: 0, 25 PPM IN DIET BEGINNING 2 WK PRIOR TO CARCINOGEN DOSE AND CONTINUING FOR 1 WK POST CARCINOGEN DOSE (STUDY DURATION:, Route [Inhibitor]: ORAL, Species: RAT, Strain/Sex: SPRAGUE-DAWLEY/FEMALE, Target Tissue: Type of Lesion: MAMMARY GLAND: TUMOR, Dose [Carcinogen]: 10 MG IN 1 ML OLIVE OIL ONCE AT 7 WK OF AGE) is reported as 19/21 (91%), 19/21 (91%), 0%; the “tumour outcome (control, treated, inhibition, significance)” value (Carcinogen: 7,12-DIMETHYLBENZ[A]ANTHRACENE, 57-97-6, Dose [Inhibitor]: 0.03 NMOL/G DIET DAILY FOR 17 WK STARTING 1 WK PRIOR TO CARCINOGEN TREATMENT AND CONTINUING THROUGH THE END OF THE STUDY, Route [Inhibitor]: ORAL, Species: RAT, Strain/Sex: SPRAGUE-DAWLEY/FEMALE, Target Tissue: Type of Lesion: MAMMARY GLAND: TUMOR, Dose [Carcinogen]: 12 MG IN 1 ML OLIVE OIL ONCE) is on record as 79%, 8%, 90%, p<0.001; the “tumour outcome (control, treated, inhibition, significance)” value (Carcinogen: 7,12-DIMETHYLBENZ[A]ANTHRACENE, 57-97-6, Dose [Inhibitor]: 5.0 MG/G DIET AT AGE 9 WK SIMULTANEOUSLY WITH CARCINOGEN, 3/WK FOR 4 WK (STUDY DURATION: 20 WK), Route [Inhibitor]: ORAL, Species: MOUSE, Strain/Sex: ICR/FEMALE, Target Tissue: Type of Lesion: FORESTOMACH: TUMOR, Dose [Carcinogen]: 0.05 MG/G DIET AT AGE 9 WK, 3/WK FOR 4 WK) is given as 87%, 80%, 8%, not significant; the “tumour outcome (control, treated, inhibition, significance)” value (Carcinogen: 7,12-DIMETHYLBENZ[A]ANTHRACENE, 57-97-6, Dose [Inhibitor]: 50 MG ONCE 2 HR BEFORE DMBA TREATMENT (STUDY DURATION: 18 WK), Route [Inhibitor]: INTRAGASTRIC, Species: RAT, Strain/Sex: SPRAGUE-DAWLEY/FEMALE, Target Tissue: Type of Lesion: MAMMARY GLAND: TUMOR, Dose [Carcinogen]: 12 MG IN 1 ML OLIVE OIL AT AGE 7 WK 2 HR AFTER AGENT TREATMENT) is 77%, 55%, 28%, not significant; the “tumour outcome (control, treated, inhibition, significance)” value (Carcinogen: 7,12-DIMETHYLBENZ[A]ANTHRACENE, 57-97-6, Dose [Inhibitor]: 50 MG ONCE 4 HR BEFORE DMBA TREATMENT (STUDY DURATION: 18 WK), Route [Inhibitor]: INTRAGASTRIC, Species: RAT, Strain/Sex: SPRAGUE-DAWLEY/FEMALE, Target Tissue: Type of Lesion: MAMMARY GLAND: TUMOR, Dose [Carcinogen]: 12 MG IN 1 ML OLIVE OIL AT AGE 7 WK 4 HR AFTER AGENT TREATMENT) is given as 100%, 36%, 64%, p<0.001; the “tumour outcome (control, treated, inhibition, significance)” value (Carcinogen: BENZO[A]PYRENE, 50-32-8, Dose [Inhibitor]: 0, 0.045 UMOL/G DIET BEGINNING 1 WK PRIOR TO CARCINOGEN TREATMENT AND CONTINUING FOR 1 WK POST CARCINOGEN TREATMENT FOLL, Route [Inhibitor]: ORAL, Species: MOUSE, Strain/Sex: CD-1/FEMALE, Target Tissue: Type of Lesion: FORESTOMACH: PAPILLOMA, Dose [Carcinogen]: 1 MG IN 0.2 ML CORN OIL 2/WK FOR 4 WK) was 85%, 84%, 1%, not significant. Besides, the “tumour outcome (control, treated, inhibition, significance)” value is, setting by setting: (Carcinogen: DIETHYLNITROSAMINE, 55-18-5, Dose [Inhibitor]: 0, 100 PPM IN DIET FOR DURATION OF STUDY BEGINNING 1 WK PRIOR TO CARCINOGEN DOSE (STUDY DURATION: 53 WK), Route [Inhibitor]: ORAL, Species: RAT, Strain/Sex: ACI/MALE, Target Tissue: Type of Lesion: LIVER: HEPATOCELLULAR ADENOMA, Dose [Carcinogen]: 200 MG/KG BW ONCE) 10/18 (55%), 6/16 (38%), 31%, not significant; (Carcinogen: DIETHYLNITROSAMINE, 55-18-5, Dose [Inhibitor]: 0, 100 PPM IN DIET FOR DURATION OF STUDY BEGINNING 1 WK PRIOR TO CARCINOGEN DOSE (STUDY DURATION: 53 WK), Route [Inhibitor]: ORAL, Species: RAT, Strain/Sex: ACI/MALE, Target Tissue: Type of Lesion: LIVER: HEPATOCELLULAR CARCINOMA, Dose [Carcinogen]: 200 MG/KG BW ONCE) 6/18 (33%), 2/16 (13%), 61%, not significant; (Carcinogen: METHYLAZOXYMETHANOL ACETATE, 592-62-1, Dose [Inhibitor]: 0, 100 PPM IN DIET FOR 4 WK BEGINNING 1 WK PRIOR TO CARCINOGEN TREATMENT (STUDY DURATION: 49 WK), Route [Inhibitor]: ORAL, Species: RAT, Strain/Sex: ACI/FEMALE, Target Tissue: Type of Lesion: COLON: CARCINOMA, Dose [Carcinogen]: 25 MG/KG BW 1/WK FOR 3 WK) 11/18 (61%), 10/12 (83%), -36%, not significant; (Carcinogen: METHYLAZOXYMETHANOL ACETATE, 592-62-1, Dose [Inhibitor]: 0, 100 PPM IN DIET FOR 4 WK BEGINNING 1 WK PRIOR TO CARCINOGEN TREATMENT (STUDY DURATION: 49 WK), Route [Inhibitor]: ORAL, Species: RAT, Strain/Sex: ACI/FEMALE, Target Tissue: Type of Lesion: SMALL INTESTINE: ADENOMA OR CARCINOMA, Dose [Carcinogen]: 25 MG/KG BW 1/WK FOR 3 WK) 11/18 (61%), 8/12 (67%), -10%, not significant; (Carcinogen: METHYLAZOXYMETHANOL ACETATE, 592-62-1, Dose [Inhibitor]: 0, 100 PPM IN DIET FOR 46 WK BEGINNING 1 WK POST CARCINOGEN TREATMENT (STUDY DURATION: 49 WK), Route [Inhibitor]: ORAL, Species: RAT, Strain/Sex: ACI/FEMALE, Target Tissue: Type of Lesion: COLON: ADENOMA OR CARCINOMA, Dose [Carcinogen]: 25 MG/KG BW 1/WK FOR 3 WK) 15/18 (83%), 18/19 (95%), -14%, not significant; (Carcinogen: METHYLAZOXYMETHANOL ACETATE, 592-62-1, Dose [Inhibitor]: 0, 100 PPM IN DIET FOR 46 WK BEGINNING 1 WK POST CARCINOGEN TREATMENT (STUDY DURATION: 49 WK), Route [Inhibitor]: ORAL, Species: RAT, Strain/Sex: ACI/FEMALE, Target Tissue: Type of Lesion: SMALL INTESTINE: ADENOMA OR CARCINOMA, Dose [Carcinogen]: 25 MG/KG BW 1/WK FOR 3 WK) 11/18 (61%), 8/19 (42%), 31%, not significant. In addition, the “tumour outcome (control, treated, inhibition, significance)” value is 15/18 (83%), 17/21 (81%), 2%, not significant (Carcinogen: METHYLAZOXYMETHANOL ACETATE, 592-62-1, Dose [Inhibitor]: 0, 400 PPM IN DIET FOR 4 WK BEGINNING 1 WK PRIOR TO CARCINOGEN TREATMENT (STUDY DURATION: 49 WK), Route [Inhibitor]: ORAL, Species: RAT, Strain/Sex: ACI/FEMALE, Target Tissue: Type of Lesion: COLON: ADENOMA OR CARCINOMA, Dose [Carcinogen]: 25 MG/KG BW 1/WK FOR 3 WK); 10/18 (56%), 1/21 (5%), 91%, not calculated (Carcinogen: METHYLAZOXYMETHANOL ACETATE, 592-62-1, Dose [Inhibitor]: 0, 400 PPM IN DIET FOR 4 WK BEGINNING 1 WK PRIOR TO CARCINOGEN TREATMENT (STUDY DURATION: 49 WK), Route [Inhibitor]: ORAL, Species: RAT, Strain/Sex: ACI/FEMALE, Target Tissue: Type of Lesion: SMALL INTESTINE: CARCINOMA, Dose [Carcinogen]: 25 MG/KG BW 1/WK FOR 3 WK); 15/18 (83%), 13/18 (72%), 13%, not significant (Carcinogen: METHYLAZOXYMETHANOL ACETATE, 592-62-1, Dose [Inhibitor]: 0, 400 PPM IN DIET FOR 46 WK BEGINNING 1 WK POST CARCINOGEN TREATMENT (STUDY DURATION: 49 WK), Route [Inhibitor]: ORAL, Species: RAT, Strain/Sex: ACI/FEMALE, Target Tissue: Type of Lesion: COLON: ADENOMA OR CARCINOMA, Dose [Carcinogen]: 25 MG/KG BW 1/WK FOR 3 WK); 11/18 (61%), 3/18 (17%), 72%, p<0.01 (Carcinogen: METHYLAZOXYMETHANOL ACETATE, 592-62-1, Dose [Inhibitor]: 0, 400 PPM IN DIET FOR 46 WK BEGINNING 1 WK POST CARCINOGEN TREATMENT (STUDY DURATION: 49 WK), Route [Inhibitor]: ORAL, Species: RAT, Strain/Sex: ACI/FEMALE, Target Tissue: Type of Lesion: SMALL INTESTINE: ADENOMA OR CARCINOMA, Dose [Carcinogen]: 25 MG/KG BW 1/WK FOR 3 WK).
As for `ClC(Cl)(Cl)Cl`, the “tumour outcome (control, treated, inhibition, significance)” value (Carcinogen: 1,2-DIMETHYLHYDRAZINE, 540-73-8, Dose [Inhibitor]: 0, 1.5 ML/KG BW IN CORN OIL ADMINISTERED 2 HR PRIOR TO EACH CARCINOGEN DOSE (STUDY DURATION: 8 MO), Route [Inhibitor]: GAVAGE, Species: RAT, Strain/Sex: BD6/MALE, Target Tissue: Type of Lesion: INTESTINE: TUMOR, Dose [Carcinogen]: 20 MG/KG BW 1/WK FOR 20 WK) was 100%, 0%, 100%, not calculated.
Take `[Mo].[Na+].[Na+].[O-2].[O-2].[O-2].[O-2]`: the “tumour outcome (control, treated, inhibition, significance)” value is on record as 30/41 (73%), 20/45 (44%), 40%, p<0.01 (Carcinogen: N-METHYL-N-BENZYLNITROSAMINE, 937-40-6, Dose [Inhibitor]: 0.32 (BASAL MOLYBDENUM LEVEL), 2 PPM (HIGH MOLYBDENUM LEVEL) IN DIET BEGINNING 4 WK PRIOR TO CARCINOGEN DOSE AND CONTINU, Route [Inhibitor]: ORAL, Species: RAT, Strain/Sex: F344/MALE, Target Tissue: Type of Lesion: ESOPHAGUS: CARCINOMA, Dose [Carcinogen]: 2.5 MG/KG IN 0.2 ML OLIVE OIL 1/WK FOR 20 WK) and 6/20 (30%), 1/14 (7%), 77%, p>0.05 (Carcinogen: N-METHYL-N-NITROSOUREA, 684-93-5, Dose [Inhibitor]: 20 PPM IN DRINKING WATER CONCURRENTLY WITH THE CARCINOGEN (STUDY DURATION: 56 WK), Route [Inhibitor]: ORAL, Species: RAT, Strain/Sex: BD6/MALE, Target Tissue: Type of Lesion: INTESTINE: ADENOCARCINOMA, Dose [Carcinogen]: 25 MG/KG 2/WK FOR 15 WK).
